Read-outs that look alike come from different tables or passages of the source.
Columns and labels:
[1] = system: washed platelets
Protocol: Human blood was collected in ACD (85 mM tri-sodium citrate, 78 mM citric acid, 110 mM D-glucose, pH 4.4) at a ratio of 1.4 ml per 10 ml blood. PRP was isolated by centrifugation at 170 g for 14 minutes and platelets were further pelleted by centrifugation at 1300 g for 6 minutes. Platelets were washed once with 10 ml ACD containing 1 mg/ml bovine serum albumin. Platelets were resuspended at ˜2.5×10^8/ml in Tyrode's Buffer (137 mM NaCl, 2 mM KCl, 1.0 mM MgCl2, 1 mM CaCl2), 5 mM glucose, 20 mM HEPES pH 7.4).

[2] = target: T1, PAR4 (Homo sapiens, UniProt Q96RI0); experiment: PAR4 FLIPR assay (antagonism of agonist peptide-induced calcium mobilization); assay type: cell-based
T1 construct: expressed in transfected cells; host or cells: HEK293 PAR4 Clone 1.2A (BMS Arctic ID 383940)
T1 sequence (Q96RI0 18-385): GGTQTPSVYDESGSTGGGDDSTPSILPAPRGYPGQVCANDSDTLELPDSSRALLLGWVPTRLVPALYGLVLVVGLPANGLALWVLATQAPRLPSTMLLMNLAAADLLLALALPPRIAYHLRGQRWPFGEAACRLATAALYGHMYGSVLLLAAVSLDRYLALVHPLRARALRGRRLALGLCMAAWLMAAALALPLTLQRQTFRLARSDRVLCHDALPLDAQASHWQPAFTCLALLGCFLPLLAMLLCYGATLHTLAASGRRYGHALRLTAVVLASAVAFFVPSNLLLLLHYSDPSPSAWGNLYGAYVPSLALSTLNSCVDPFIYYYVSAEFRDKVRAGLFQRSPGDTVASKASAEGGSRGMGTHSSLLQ
In short: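 Antagonism was taken as block of calcium mobilization evoked by the agonist peptide H-Ala-Phe(4-F)-Pro-Gly-Trp-Leu-Val-Lys-Asn-[…]-NH2, added after 30 min room-temperature compound preincubation in dye-loaded PAR4-transfected HEK293 cells (endogenous PAR1). Fluorescence was read on FDSS, with compound addition alone used as the agonist counter-screen; values come from 11-point concentration-response curves.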

[3] = target: T2, protease-activated receptor type 4 (PAR4) (Homo sapiens, UniProt Q96RI0); conditions: abstract of J. Med. Chem. 44(22):3746-3749 (2001); cited from earlier work
T2 sequence (Q96RI0 18-385): T1 sequence (Q96RI0 18-385)

[4] = target: T3, PAR1 (Homo sapiens, UniProt P25116); conditions: ACS patients, TRACER phase III trial; cited from earlier work
T3 construct: in the TRACER phase III trial in ACS patients; host or cells: ACS patients (clinical trial)
T3 sequence (P25116 22-425): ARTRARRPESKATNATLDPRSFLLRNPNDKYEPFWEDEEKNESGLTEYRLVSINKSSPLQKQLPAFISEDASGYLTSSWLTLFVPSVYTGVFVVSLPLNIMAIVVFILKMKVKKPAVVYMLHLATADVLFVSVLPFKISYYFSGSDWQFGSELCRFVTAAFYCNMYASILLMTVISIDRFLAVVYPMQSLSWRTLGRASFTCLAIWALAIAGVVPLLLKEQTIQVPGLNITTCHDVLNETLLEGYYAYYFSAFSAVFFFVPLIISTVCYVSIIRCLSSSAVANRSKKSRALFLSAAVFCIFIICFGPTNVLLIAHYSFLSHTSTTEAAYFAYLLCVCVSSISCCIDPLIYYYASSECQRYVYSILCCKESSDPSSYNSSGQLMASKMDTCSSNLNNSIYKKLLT

Molecule	IC50 [2] [nM]	further results
C[C@H](N)C(=O)N[C@@H](Cc1ccc(O)cc1)C(=O)N1CCC[C@H]1C(=O)NCC(=O)N[C@@H](CCCCN)C(=O)N[C@@H](Cc1ccccc1)C(=O)O [AYPGKF]	–	EC50 [1]: 12000 nM
COc1cnc2c(-c3nc4cc(F)c5c(c4s3)C[C@H](CO)O5)cc(Cl)cc2c1 [Example 282, (R)-(2-(6-chloro-3-methoxyquinolin-8-yl)-5-fluoro-7,8-dihydrobenzofuro[5,4-d]thiazol-7-yl)methanol]	36	–
COc1cnc2c(-c3nc4cc(F)c5c(c4s3)C[C@H](COC(=O)Nc3cccnc3)O5)cc(Cl)cc2c1 [Example 283, (R)-(2-(6-chloro-3-methoxyquinolin-8-yl)-5-fluoro-7,8-dihydrobenzofuro[5,4-d]thiazol-7-yl)methyl pyridin-3-ylcarbamate]	2.2	–
COc1cnc2c(-c3nc4cc(F)c5c(c4s3)C[C@H](COC(=O)Nc3cccc(C(N)=O)c3)O5)cc(Cl)cc2c1 [Example 284, (R)-(2-(6-chloro-3-methoxyquinolin-8-yl)-5-fluoro-7,8-dihydrobenzofuro[5,4-d]thiazol-7-yl)methyl (3-carbamoylphenyl)carbamate]	2.8	–
COc1cnc2c(-c3nc4cc(F)c5c(c4s3)C[C@@](C)(CO)O5)cc(Cl)cc2c1 [Example 285, (S)-(2-(6-chloro-3-methoxyquinolin-8-yl)-5-fluoro-7-methyl-7,8-dihydrobenzofuro[5,4-d]thiazol-7-yl)methanol]	1.5	–
COc1cnc2c(-c3nc4cc(F)c5c(c4s3)C[C@](C)(COC(=O)Nc3cnc(OCCO)nc3)O5)cc(Cl)cc2c1 [Example 286, (R)-(2-(6-chloro-3-methoxyquinolin-8-yl)-5-fluoro-7-methyl-7,8-dihydrobenzofuro[5,4-d]thiazol-7-yl)methyl (2-(2-hydroxyethoxy)pyrimidin-5-yl)carbamate]	1	–
COc1cnc2c(-c3nc4ccc5c(c4s3)OC[C@H](COC(=O)Nc3cnc(OCCO)nc3)O5)cc(Cl)cc2c1 [Example 287, (R)-(2-(6-chloro-3-methoxyquinolin-8-yl)-7,8-dihydro-[1,4]dioxino[2′,3′:3,4]benzo[1,2-d]thiazol-7-yl)methyl (2-(2-hydroxyethoxy)pyrimidin-5-yl)carbamate]	1.6	–
COc1cnc2c(-c3nc4ccc5c(c4s3)OC[C@H](COC(=O)Nc3cnc(OC[C@H](C)O)nc3)O5)cc(Cl)cc2c1 [Example 288, ((R)-2-(6-chloro-3-methoxyquinolin-8-yl)-7,8-dihydro-[1,4]dioxino[2′,3′:3,4]benzo[1,2-d]thiazol-7-yl)methyl (2-((S)-2-hydroxypropoxy)pyrimidin-5-yl)carbamate]	2.2	–
COc1cnc2c(-c3nc4ccc5c(c4s3)OC[C@H](COC(=O)Nc3cnc(OC[C@@H](C)O)nc3)O5)cc(Cl)cc2c1 [Example 289, ((R)-2-(6-chloro-3-methoxyquinolin-8-yl)-7,8-dihydro-[1,4]dioxino[2′,3′:3,4]benzo[1,2-d]thiazol-7-yl)methyl (2-((R)-2-hydroxypropoxy)pyrimidin-5-yl)carbamate]	1.8	–
COc1cnc2c(-c3nc4cc(F)c5c(c4s3)[C@H](C)[C@@H](CO)O5)cc(Cl)cc2c1 [Example 290, ((7S,8S)-2-(6-chloro-3-methoxyquinolin-8-yl)-5-fluoro-8-methyl-7,8-dihydrobenzofuro[5,4-d]thiazol-7-yl)methanol]	0.8	–
COc1cnc2c(-c3nc4cc(F)c5c(c4s3)OC[C@H](CO)O5)cc(C)cc2n1 [Example 291, (S)-(5-fluoro-2-(2-methoxy-7-methylquinoxalin-5-yl)-7,8-dihydro-[1,4]dioxino[2′,3′:3,4]benzo[1,2-d]thiazol-7-yl)methanol]	59	–
CCOC(=O)c1ccc(-c2nn(Cc3ccccc3)c3ccccc23)cc1 [YD-3, ethyl 4-(1-benzyl-1H-indazol-3-yl)benzoate]	–	Inhibition of PAR4-dependent platelet activation [3]: selective and potent inhibitor
CCOC(=O)N[C@@H]1CC[C@@H]2[C@@H](C1)C[C@H]1C(=O)O[C@H](C)[C@H]1[C@H]2/C=C/c1ccc(-c2cccc(F)c2)cn1 [vorapaxar]	–	Cardiovascular events [4]: did not significantly reduce; Risk of major bleeding [4]: significantly increased
(S)-5-fluoro-2-(2-methoxy-7-methylquinoxalin-5-yl)-7-(((2-methylpyrimidin-5-yl)oxy)m ethyl)-7,8-dihydro-[1,4]dioxino[2′,3′:3,4]benzo[1,2-d]thiazole [Example 292]	–	IC50 ([2]; PAR4-expressing HEK293 cells, calcium mobilization induced by H-Ala-Phe(4-F)-Pro-Gly-Trp-Leu-Val-Lys-Asn-Gly-NH2, 11-point concentration-response curves): 1.1 nM
